# Square brackets hold non-standard residues; d marks the D form. Peptide text beside a SMILES is read from it.
# Legend:
# small α-syn PFF = test: Western blot of small α-syn PFF; assay type: biochemical; settings: 200 nM PFF with 250, 500, 750, 1000 nM SVD-1a, 72 h, 37 °C; antibody Syn211
# Procedure: Samples of 200 nM small α-syn PFF or α-syn monomer were incubated with 0, 250, 500, 750 and 1000 nM SVD-1a for 72 h at 37 °C in PBS pH 7.4 with 0.05% sodium azide. Samples were then resolved via SDS–PAGE on 12% TGX gels (Bio-Rad, Hercules, USA) using the Mini-PROTEAN Tetra Cell (Bio-Rad, Hercules, USA). Proteins were transferred to a PVDF membrane (0.2 µm pore size) (Trans-Blot Turbo Mini PVDF Transfer Pack, Bio-Rad, Hercules, USA) at 25 V, 1.3 A for 7 min. Blocking of the membrane was carried out with 2% nonfat dried milk powder in TBS + 0.05% Tween 20 for 1 h at room temperature. Anti-α-synuclein antibody Syn211 (RRID:AB_628318, Santa Cruz Biotechnology, Dallas, TX, USA) was used as primary antibody at a concentration of 1 µg/ml in TBS-T for 1 h at RT. As a secondary antibody, an HRP-coupled goat anti-mouse IgG (RRID:AB_228307, Thermo Fisher Scientific, Waltham, MA, USA) was used at 0.2 µg/ml in TBS-T for 1 h at RT. […]
# Supplementary Figure 11: Western blot of small α-syn PFF samples incubated with SVD-1a. […] A PFF and monomer sample that were incubated without SVD-1a served as controls. α-Syn was detected with Syn211. A prominent monomer band was present between the 15 kDa- and 20 kDa marker bands, detected with shorter exposure time (left). […] In the upper part of the blot, above the marker range, PFFs were detected using longer exposure time due to weaker signal (right).
# [1] = system: recombinant full-length α-syn; test: De novo ThT aggregation screening assay (50 µM α-syn); assay type: biochemical
# Procedure: The Thioflavin T (ThT) assay is commonly used for the visualization of α-syn fibrilization, since the dye ThT is able to bind to the amyloidogenic cross-β-sheet proportions of fibril structures. Recombinant α-syn was thawed on ice and centrifuged for 30 min at 21,000 × g and 4 °C. The concentration of the supernatant was determined as described previously. Lyophilized D-peptides were thawed at RT for 1 h and dissolved in 500 µl PBS pH 7.4. After centrifugation for 30 min at 21,000 × g the supernatant concentration was determined by UV–vis using the corresponding extinction coefficient at A280. All ThT assay experiments were performed at 37 °C with 15 µM ThT and 0.05% sodium azide (w/v) in PBS pH 7.4 if not otherwise stated. ThT fluorescence was monitored with bottom optics at λex = 448 nm and λem = 482 nm in a fluorescence plate reader with orbital averaging on 3 mm (Clariostar or Polarstar Optima, BMG labtech, GE). […]
# ThT assay was used for different purposes. […] Lag-time and t½ were calculated as described previously. […]
# Monomeric α-syn (Supplementary Fig. 3) was incubated with or without a 3-fold molar excess of the D-peptides. […] The ThT positive aggregation was fitted with a symmetric Boltzmann fit and t ½- and lag-time were calculated accordingly. […] ThT fluorescence progression was measured in a 96-well non-binding half-area with a FLUOStar plate reader at λex = 448 nm and λem = 482 nm. […]
smiles,measurement,setting,value
CC[C@@H](C)[C@@H](NC(=O)[C@@H](Cc1c[nH]cn1)NC(=O)[C@@H](CCC(=O)O)NC(=O)[C@@H](CCC(N)=O)NC(=O)[C@@H](Cc1c[nH]c2ccccc12)NC(=O)[C@@H](Cc1ccc(O)cc1)NC(=O)[C@H](NC(=O)[C@@H](CCC(=O)O)NC(=O)[C@@H](Cc1c[nH]cn1)NC(=O)[C@H](NC(=O)[C@H]1CCCN1C(=O)[C@@H](CC(C)C)NC(=O)[C@H](N)CCCNC(=N)N)[C@H](C)O)[C@H](C)O)C(=O)N[C@H](Cc1c[nH]c2ccccc12)C(=O)N[C@H](Cc1c[nH]cn1)C(=O)N[C@H](C)C(=O)N[C@H](CCCNC(=N)N)C(=O)N[C@H](CCCNC(=N)N)C(=O)N[C@H](CCCNC(=N)N)C(=O)N[C@H](CCCNC(=N)N)C(=O)N[C@H](CCCNC(=N)N)C(N)=O [SVD-1a] (H-[dR][dL][dP][dT][dH][dE][dT][dY][dW][dQ][dE][dH][dI][dW][dH][dA][dR][dR][dR][dR][dR]-NH2),intensity of higher MW α-syn bands,small α-syn PFF,progressively reduced in presence of higher SVD-1a concentrations
CC[C@@H](C)[C@@H](NC(=O)[C@@H](Cc1c[nH]cn1)NC(=O)[C@@H](CCC(=O)O)NC(=O)[C@@H](CCC(N)=O)NC(=O)[C@@H](Cc1c[nH]c2ccccc12)NC(=O)[C@@H](Cc1ccc(O)cc1)NC(=O)[C@H](NC(=O)[C@@H](CCC(=O)O)NC(=O)[C@@H](Cc1c[nH]cn1)NC(=O)[C@H](NC(=O)[C@H]1CCCN1C(=O)[C@@H](CCSC)NC(=O)[C@H](N)CCCCN)[C@H](C)O)[C@H](C)O)C(=O)N[C@H](Cc1c[nH]c2ccccc12)C(=O)N[C@H](Cc1c[nH]cn1)C(=O)N[C@H](C)C(N)=O [SVD-1] (H-[dK][dM][dP][dT][dH][dE][dT][dY][dW][dQ][dE][dH][dI][dW][dH][dA]-NH2),"effect on α-syn aggregation, concentration dependency","[1]; 50 µM α-syn with 50, 150 or 250 µM D-peptide, PBS pH 7.4, n = 5",most efficient
same,effect on α-syn aggregation (t½ and lag-time),"[1]; 50 µM α-syn, 3-fold molar excess peptide, PBS pH 7.4, 37 °C, shaking 300 rpm 30 s per cycle, n = 3",delayed α-syn aggregation
